# Test results as given in US20100143459A1, “PHARMACEUTICAL DOSAGE FORM FOR ORAL ADMINISTRATION OF TYROSINE KINASE INHIBITOR” (ABBOTT GMBH & CO. KG, priority 2006, published 2010).
# Experiment: Pharmacokinetics in humans after a 10 mg tablet under fasting conditions
# Type: in vivo
# Details: human patients, single 10 mg oral dose, mean±SD
# Experimental: Tablets containing a 10 mg dose of ABT-869 ethanolate, as prepared above, were administered to 11 patients in the morning with 240 mL of water under fasting conditions (defined as no food or drink consumption except water and concomitant medications for 2 hours prior to dosing). Following dosing, 4-mL blood samples were collected for pharmacokinetic analyses at the following times: 0 (pre-dose), 1, 3, 4, 6, 8, 24 and 48 hours. These samples were analyzed for ABT-869 plasma concentrations using Liquid Chromatography/Tandem Mass Spectrometry (LCMS/MS). The lower limit of quantification (LLOQ) for the assay was 1.1 ng/mL.
# Pharmacokinetic parameters including the maximum observed plasma concentration (Cmax), time to Cmax (Tmax), the area under the plasma concentration-time curve (AUC) from 0 to time of the last measurable concentration (AUC0-48) and AUC from 0 to infinite time (AUCoo) were determined by non-compartmental methods using WinNonlin Professional version 5.2 software.
structure (smiles),measurement,setting,value
"Cc1ccc(F)c(NC(=O)Nc2ccc(-c3cccc4[nH]nc(N)c34)cc2)c1 [ABT 869, N-[4-(3-amino-1H-indazol-4-yl)phenyl]-N′-(2-fluoro-5-methylphenyl)-urea]",AUC0-48 per mg of dose,,about 0.40±0.10 μg·h/mL/mg
same,AUCoo per mg of dose,,about 0.55±0.17 μg·h/mL/mg
same,Cmax per mg of dose,,about 0.023±0.004 μg/mL/mg
same,Tmax,plasma,~2.8 h
